Results reported in ChEMBL document CHEMBL1201862, “PubChem BioAssay data set” (2004).
Active and inactive are the calls of the source.

Tests used:
HEK293 [1] = assay: inhibition of NOD1-driven NF-kB reporter – cell-based, luminescence, uHTS, primary screen (AID 1578); format: functional; conditions: Homo sapiens
HEK293 [2] = assay: cells; format: functional, cell-based; conditions: Homo sapiens
HEK293 [3] = assay: cells; format: functional, cell-based; conditions: Homo sapiens; remark: listed apart in the source
[4] = target: Nucleotide-binding oligomerization domain-containing protein 2 (Homo sapiens, UniProt Q9HC29); assay: inhibition of NOD2-driven NF-kB reporter – cell-based, luminescence, uHTS, HEK293 (AID 1566); format: functional
Sequence of Nucleotide-binding oligomerization domain-containing protein 2 (Q9HC29 whole entry, the tested form may be a part): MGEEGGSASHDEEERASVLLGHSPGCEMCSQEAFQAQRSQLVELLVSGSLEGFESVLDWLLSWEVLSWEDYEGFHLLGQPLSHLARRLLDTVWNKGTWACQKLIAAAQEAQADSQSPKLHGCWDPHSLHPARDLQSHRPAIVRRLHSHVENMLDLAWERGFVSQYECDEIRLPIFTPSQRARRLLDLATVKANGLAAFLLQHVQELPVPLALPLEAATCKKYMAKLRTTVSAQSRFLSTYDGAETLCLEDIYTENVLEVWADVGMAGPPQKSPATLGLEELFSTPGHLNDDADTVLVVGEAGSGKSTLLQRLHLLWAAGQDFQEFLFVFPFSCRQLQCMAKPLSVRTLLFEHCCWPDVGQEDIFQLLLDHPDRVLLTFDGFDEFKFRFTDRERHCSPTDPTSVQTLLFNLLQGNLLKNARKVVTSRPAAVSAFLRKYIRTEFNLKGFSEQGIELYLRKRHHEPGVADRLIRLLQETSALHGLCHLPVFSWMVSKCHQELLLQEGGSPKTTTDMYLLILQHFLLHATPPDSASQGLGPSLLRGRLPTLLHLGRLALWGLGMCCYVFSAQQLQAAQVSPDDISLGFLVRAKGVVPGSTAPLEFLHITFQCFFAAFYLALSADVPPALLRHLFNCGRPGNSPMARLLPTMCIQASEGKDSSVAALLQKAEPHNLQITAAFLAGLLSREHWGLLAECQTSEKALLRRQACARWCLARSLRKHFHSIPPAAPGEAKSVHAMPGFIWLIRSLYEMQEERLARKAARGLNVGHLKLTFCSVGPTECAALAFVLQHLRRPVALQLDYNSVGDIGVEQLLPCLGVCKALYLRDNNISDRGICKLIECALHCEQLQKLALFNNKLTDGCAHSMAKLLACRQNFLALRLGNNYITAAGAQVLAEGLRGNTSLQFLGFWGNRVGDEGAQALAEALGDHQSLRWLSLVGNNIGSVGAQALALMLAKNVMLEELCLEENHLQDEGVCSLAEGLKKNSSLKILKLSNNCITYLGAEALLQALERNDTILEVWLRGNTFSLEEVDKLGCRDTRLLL

HEK293 [5] = assay: NOD2 signaling inhibitors in MDP-stimulated cells, cell-based, uHTS, luminescence (AID 2001); format: functional; conditions: Homo sapiens
HEK293 [6] = assay: cells; format: functional, cell-based; conditions: Homo sapiens; remark: listed apart in the source
Protein Rev = Protein Rev (Human immunodeficiency virus type 1 group M subtype B (isolate HXB2)(HIV-1), UniProt P04618); assay: blockers of HIV Rev/RRE RNA complex – biochemical, fluorescence polarization, HIV-1, dose response (AID 434976); design: species or system Human immunodeficiency virus 1
Sequence of Protein Rev (P04618 whole entry): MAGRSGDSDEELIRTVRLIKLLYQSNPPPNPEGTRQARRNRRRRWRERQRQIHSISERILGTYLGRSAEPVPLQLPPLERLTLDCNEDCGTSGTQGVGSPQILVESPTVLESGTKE

[7] = target: Female germline-specific tumor suppressor gld-1 (Caenorhabditis elegans, UniProt Q17339); assay: blockers of GLD-1/TGE RNA complex formation – biochemical, fluorescence polarization, C. elegans, dose response (AID 2802);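 note: fluorescence polarization of labeled TGE RNA bound by purified gld-1 protein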
Sequence of Female germline-specific tumor suppressor gld-1 (Q17339 whole entry): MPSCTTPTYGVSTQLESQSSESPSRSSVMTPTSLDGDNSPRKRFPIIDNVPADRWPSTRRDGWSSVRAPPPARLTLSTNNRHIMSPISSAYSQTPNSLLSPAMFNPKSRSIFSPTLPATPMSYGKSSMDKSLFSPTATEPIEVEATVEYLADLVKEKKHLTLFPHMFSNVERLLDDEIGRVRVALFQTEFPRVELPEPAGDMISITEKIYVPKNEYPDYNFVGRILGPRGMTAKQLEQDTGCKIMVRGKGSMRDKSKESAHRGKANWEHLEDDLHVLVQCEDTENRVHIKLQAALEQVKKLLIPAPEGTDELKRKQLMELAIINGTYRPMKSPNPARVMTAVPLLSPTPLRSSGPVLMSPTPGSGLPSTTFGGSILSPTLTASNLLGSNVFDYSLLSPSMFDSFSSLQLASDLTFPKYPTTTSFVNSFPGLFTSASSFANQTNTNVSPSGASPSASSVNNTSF

[8] = target: E3 ubiquitin-protein ligase XIAP (Homo sapiens, UniProt P98170); assay: Counter Screen using XIAP-Bir3 for Chemical Antagonists of Bir1/2 domains of IAP-family anti-apoptotic proteins. [Related pubchem assays (depositor defined):AID1018, AID1449, AID1514, AID1638, AID1749, AID1750, AID488957, AID488963]
Sequence of E3 ubiquitin-protein ligase XIAP (P98170 whole entry): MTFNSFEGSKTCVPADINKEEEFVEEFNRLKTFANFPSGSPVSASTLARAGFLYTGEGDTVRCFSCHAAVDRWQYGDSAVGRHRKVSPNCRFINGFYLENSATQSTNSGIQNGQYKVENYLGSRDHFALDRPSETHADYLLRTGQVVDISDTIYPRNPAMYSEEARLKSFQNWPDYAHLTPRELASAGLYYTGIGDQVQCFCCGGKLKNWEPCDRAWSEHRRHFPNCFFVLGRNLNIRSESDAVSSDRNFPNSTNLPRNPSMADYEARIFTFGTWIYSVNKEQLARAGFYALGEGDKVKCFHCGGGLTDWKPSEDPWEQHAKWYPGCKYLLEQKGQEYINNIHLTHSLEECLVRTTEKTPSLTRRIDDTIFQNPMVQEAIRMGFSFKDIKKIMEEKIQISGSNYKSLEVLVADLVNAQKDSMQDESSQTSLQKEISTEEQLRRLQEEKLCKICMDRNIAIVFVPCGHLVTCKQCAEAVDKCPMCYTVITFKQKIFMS

Coagulation factor XII [9] = target: T1, Coagulation factor XII (Homo sapiens, UniProt P00748); format: functional;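 note: activated factor XIIa alpha cleaving a fluorogenic AMC peptide substrate; inhibitor potency from loss of enzyme activity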
T1 sequence (P00748 whole entry): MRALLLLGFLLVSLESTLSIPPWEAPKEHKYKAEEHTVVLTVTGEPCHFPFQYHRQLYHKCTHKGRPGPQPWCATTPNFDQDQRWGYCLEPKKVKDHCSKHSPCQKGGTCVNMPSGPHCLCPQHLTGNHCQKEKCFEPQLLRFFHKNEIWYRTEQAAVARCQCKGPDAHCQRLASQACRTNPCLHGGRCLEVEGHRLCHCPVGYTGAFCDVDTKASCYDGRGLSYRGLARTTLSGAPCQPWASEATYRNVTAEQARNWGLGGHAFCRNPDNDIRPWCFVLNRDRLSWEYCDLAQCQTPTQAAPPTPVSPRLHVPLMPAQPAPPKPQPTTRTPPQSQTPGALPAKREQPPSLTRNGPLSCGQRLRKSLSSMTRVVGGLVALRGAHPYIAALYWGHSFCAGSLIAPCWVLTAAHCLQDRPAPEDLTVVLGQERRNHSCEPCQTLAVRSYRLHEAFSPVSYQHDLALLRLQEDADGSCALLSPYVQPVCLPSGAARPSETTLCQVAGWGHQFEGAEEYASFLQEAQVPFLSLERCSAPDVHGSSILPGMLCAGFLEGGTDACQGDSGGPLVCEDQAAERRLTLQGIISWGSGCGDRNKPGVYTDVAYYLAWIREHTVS

[10] = target: T2, Replicative DNA helicase DnaB (Mycobacterium tuberculosis, UniProt P9WMR3); assay: DnaB intein splicing inhibitors, dose response, biochemical, cell-free fluorescence (AID 449749); format: functional
T2 sequence (P9WMR3 whole entry): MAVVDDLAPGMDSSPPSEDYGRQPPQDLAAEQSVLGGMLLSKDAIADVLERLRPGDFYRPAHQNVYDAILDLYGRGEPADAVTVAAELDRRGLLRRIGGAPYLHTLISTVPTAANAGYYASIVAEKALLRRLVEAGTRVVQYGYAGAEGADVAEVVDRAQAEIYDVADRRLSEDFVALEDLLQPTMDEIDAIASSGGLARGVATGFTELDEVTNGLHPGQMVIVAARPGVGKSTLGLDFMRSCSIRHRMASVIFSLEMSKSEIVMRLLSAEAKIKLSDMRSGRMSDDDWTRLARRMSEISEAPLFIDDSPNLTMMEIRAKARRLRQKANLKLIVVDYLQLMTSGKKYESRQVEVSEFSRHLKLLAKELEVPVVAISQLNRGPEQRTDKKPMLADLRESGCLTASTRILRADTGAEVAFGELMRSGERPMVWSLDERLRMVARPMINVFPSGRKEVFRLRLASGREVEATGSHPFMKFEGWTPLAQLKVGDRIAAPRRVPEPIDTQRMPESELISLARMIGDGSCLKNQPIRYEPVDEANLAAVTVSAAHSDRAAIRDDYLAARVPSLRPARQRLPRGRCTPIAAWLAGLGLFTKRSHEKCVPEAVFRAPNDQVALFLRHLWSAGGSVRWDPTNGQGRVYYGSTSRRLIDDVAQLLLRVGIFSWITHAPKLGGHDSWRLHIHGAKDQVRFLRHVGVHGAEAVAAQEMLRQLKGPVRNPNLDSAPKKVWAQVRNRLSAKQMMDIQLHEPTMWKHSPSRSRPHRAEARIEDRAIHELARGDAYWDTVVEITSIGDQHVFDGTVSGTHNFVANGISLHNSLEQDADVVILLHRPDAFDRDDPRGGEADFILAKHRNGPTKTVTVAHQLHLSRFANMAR

Protein RecA = target: T3, Protein RecA (Mycobacterium tuberculosis, UniProt P9WHJ3); assay: Fluorescence Cell-Free Homogeneous Dose Retest to Identify Inhibitors of RecA-Intein Splicing Activity. [Related pubchem assays (depositor defined):AID2097, AID2223, AID489010, AID492950]; format: functional
T3 sequence (P9WHJ3 whole entry): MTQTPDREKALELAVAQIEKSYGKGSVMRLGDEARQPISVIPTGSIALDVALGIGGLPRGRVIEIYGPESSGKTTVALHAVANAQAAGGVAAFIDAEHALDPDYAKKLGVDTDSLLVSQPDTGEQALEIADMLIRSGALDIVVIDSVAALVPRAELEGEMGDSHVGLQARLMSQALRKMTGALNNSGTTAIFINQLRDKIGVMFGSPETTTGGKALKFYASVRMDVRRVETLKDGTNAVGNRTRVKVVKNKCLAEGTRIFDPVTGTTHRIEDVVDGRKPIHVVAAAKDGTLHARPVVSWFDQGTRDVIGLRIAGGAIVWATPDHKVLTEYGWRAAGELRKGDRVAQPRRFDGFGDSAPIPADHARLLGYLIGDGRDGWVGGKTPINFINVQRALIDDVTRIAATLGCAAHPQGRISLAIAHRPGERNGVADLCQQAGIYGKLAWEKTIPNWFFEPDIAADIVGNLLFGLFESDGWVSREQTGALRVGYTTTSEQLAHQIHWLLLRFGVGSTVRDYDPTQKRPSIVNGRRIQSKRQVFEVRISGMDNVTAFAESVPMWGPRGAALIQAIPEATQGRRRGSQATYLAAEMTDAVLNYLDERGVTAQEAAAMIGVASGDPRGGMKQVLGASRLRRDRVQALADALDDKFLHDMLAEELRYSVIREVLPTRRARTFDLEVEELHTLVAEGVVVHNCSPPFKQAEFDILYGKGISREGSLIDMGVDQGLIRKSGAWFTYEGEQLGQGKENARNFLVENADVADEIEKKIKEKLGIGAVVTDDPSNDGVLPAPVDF

Coagulation factor XII [11] = target: T1, Coagulation factor XII; assay: activated coagulation factor XII inhibitor potency, concentration-effect curve, cell-free (AID 716); format: functional
[12] = target: T4, Mannose-6-phosphate isomerase (Homo sapiens, UniProt P34949); assay: MPI inhibition at elevated mannose 6-phosphate – biochemical, fluorescence intensity, high mannose 6-phosphate, primary screen (AID 1220)
T4 sequence (P34949 whole entry): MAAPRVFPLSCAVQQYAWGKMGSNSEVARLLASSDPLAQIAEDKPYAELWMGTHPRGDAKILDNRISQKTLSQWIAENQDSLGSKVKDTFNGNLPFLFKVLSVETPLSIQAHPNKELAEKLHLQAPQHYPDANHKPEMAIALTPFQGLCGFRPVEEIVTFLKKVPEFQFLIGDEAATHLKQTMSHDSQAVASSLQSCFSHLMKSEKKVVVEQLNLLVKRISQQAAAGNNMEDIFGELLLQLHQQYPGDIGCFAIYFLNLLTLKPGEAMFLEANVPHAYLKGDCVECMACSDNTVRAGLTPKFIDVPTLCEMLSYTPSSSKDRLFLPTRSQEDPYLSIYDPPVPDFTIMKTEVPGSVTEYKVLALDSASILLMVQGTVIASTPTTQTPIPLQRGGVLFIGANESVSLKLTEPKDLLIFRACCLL

Beta-galactosidase = Beta-galactosidase (Escherichia coli, UniProt Q8VNN2); assay: detection-enzyme interference by beta-gal modulators – biochemical, E. coli enzyme, set 3, artefact control for CCR6 antagonist project, dose response (AID 504712); format: functional
Sequence of Beta-galactosidase (Q8VNN2 whole entry): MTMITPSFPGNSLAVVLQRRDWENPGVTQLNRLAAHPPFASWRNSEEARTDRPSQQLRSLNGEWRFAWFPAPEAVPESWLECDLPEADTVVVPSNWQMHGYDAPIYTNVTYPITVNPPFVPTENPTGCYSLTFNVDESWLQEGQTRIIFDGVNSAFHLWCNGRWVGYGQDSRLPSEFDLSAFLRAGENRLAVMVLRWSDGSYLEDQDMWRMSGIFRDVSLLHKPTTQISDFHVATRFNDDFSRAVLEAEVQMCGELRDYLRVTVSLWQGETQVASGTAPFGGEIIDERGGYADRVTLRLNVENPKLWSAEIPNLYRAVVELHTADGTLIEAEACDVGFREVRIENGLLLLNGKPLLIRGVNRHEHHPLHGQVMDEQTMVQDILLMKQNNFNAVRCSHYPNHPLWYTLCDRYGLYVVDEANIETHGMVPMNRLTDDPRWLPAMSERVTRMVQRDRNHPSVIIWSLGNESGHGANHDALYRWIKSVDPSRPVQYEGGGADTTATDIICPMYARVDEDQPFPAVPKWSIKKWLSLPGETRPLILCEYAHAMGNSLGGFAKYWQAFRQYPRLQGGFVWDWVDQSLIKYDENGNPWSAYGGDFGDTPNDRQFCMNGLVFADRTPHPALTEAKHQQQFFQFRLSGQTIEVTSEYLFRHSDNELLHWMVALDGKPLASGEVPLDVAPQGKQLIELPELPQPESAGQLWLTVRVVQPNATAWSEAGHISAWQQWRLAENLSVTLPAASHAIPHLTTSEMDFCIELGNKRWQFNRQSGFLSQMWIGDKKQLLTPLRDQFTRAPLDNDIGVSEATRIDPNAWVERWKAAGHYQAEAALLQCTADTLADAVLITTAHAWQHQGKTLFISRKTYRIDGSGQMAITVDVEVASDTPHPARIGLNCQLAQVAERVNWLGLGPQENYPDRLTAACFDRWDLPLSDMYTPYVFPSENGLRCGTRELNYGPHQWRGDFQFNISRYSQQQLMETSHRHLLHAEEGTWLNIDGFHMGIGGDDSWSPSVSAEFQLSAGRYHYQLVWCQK

Row | Structure (SMILES) | EC50 (HEK293 [1]) | IC50 (HEK293 [2]) | IC50 (HEK293 [3]) | EC50 [4] | IC50 (HEK293 [5]) | IC50 (HEK293 [6]) | IC50 (Coagulation factor XII [11]) | other results
1 | COc1cc2c(cc1OC)C(c1ccc(-c3cc(Cl)ccc3Cl)o1)=NCC2 | > 20 µM (inactive) | 5.36 µM (active) | > 20 µM (inactive) | > 20 µM (inactive) | 2.75 µM (active) | > 20 µM (inactive) | – | –
2 | COCCOC(=O)c1sc(=S)n(CCOC)c1N | – | – | – | – | – | – | – | IC50 (Protein Rev): 11.1 µM (not active); IC50 [7]: 5.31 µM (active); IC50 [8]: 0.699 µM (active)
3 | CC(=O)Nc1ccc(OC(=O)c2ccco2)cc1 | – | – | – | – | – | – | – | IC50 (Coagulation factor XII [9]): > 50 µM (inactive); AC50 [10]: 93.9 µM (active); EC50 (Protein RecA): 12.1 µM (active)
4 | COc1ccc(CNc2nc(NCc3ccc(OC)cc3)n(S(C)(=O)=O)n2)cc1 | – | – | – | – | – | – | > 50 µM (inactive) | –
5 | CN1CC2(Cc3c1ccc1ccccc31)C(=O)OC(C)(C)OC2=O | – | – | – | – | – | – | > 50 µM (inactive) | IC50 [12]: > 50 µM (not active)
6 | O=C(NC(=S)N1CCN(Cc2ccc3c(c2)OCO3)CC1)c1cccc(Br)c1 | 7.03 µM (active) | 16.1 µM (active) | > 20 µM (inactive) | > 20 µM (inactive) | 6.54 µM (inactive) | > 20 µM (inactive) | – | IC50 (Beta-galactosidase): > 66.6 µM (inactive)
